O=C1c2ccccc2C(=O)N1O
solubility (mole fraction)
Conditions | 278.15 K | 283.15 K | 288.15 K | 293.15 K | 298.15 K | 303.15 K | 308.15 K | 313.15 K | 318.15 K | 323.15 K
in 1,4-dioxane | – | – | 0.0181 | 0.0204 | 0.0231 | 0.0255 | 0.0286 | 0.0319 | 0.0354 | 0.0393
in 2-ethoxyethanol | 0.016 | 0.0182 | 0.0207 | 0.0233 | 0.026 | 0.0294 | 0.0327 | 0.0364 | 0.0404 | 0.0447
in 2-methoxyethanol | 0.0254 | 0.028 | 0.0311 | 0.0346 | 0.0381 | 0.0421 | 0.0466 | 0.051 | 0.056 | 0.062
in acetone | 0.00744 | 0.00861 | 0.00981 | 0.0111 | 0.0126 | 0.0144 | 0.0161 | 0.0186 | 0.0202 | 0.0222
in acetonitrile | 0.00232 | 0.00268 | 0.00312 | 0.0036 | 0.00414 | 0.00476 | 0.00543 | 0.00618 | 0.00701 | 0.0079
in ethanol | 0.00307 | 0.00366 | 0.00442 | 0.00526 | 0.00614 | 0.00729 | 0.00855 | 0.01 | 0.0117 | 0.0138
in ethyl acetate | 0.00214 | 0.00252 | 0.00301 | 0.00353 | 0.00399 | 0.00465 | 0.00541 | 0.0062 | 0.00705 | 0.00807
in methanol | 0.00354 | 0.00412 | 0.00484 | 0.00566 | 0.00657 | 0.0078 | 0.00903 | 0.0105 | 0.0123 | 0.0143
in methyl acetate | 0.00303 | 0.00342 | 0.00394 | 0.00462 | 0.00528 | 0.00618 | 0.00696 | 0.00794 | 0.00908 | 0.0104
in n-propanol | 0.00214 | 0.00259 | 0.00321 | 0.00388 | 0.00467 | 0.00568 | 0.00688 | 0.00834 | 0.00992 | 0.0119
in n-propyl acetate | 0.0017 | 0.00202 | 0.00235 | 0.00281 | 0.00329 | 0.00381 | 0.00442 | 0.00512 | 0.00594 | 0.00679

Source: BigSolDB 2.1
